Test results reported in patent US8183262B2, “Pyridine derivatives as mGluR2 antagonists” (Hoffmann-La Roche Inc., priority 2007, dated 2012).

SMILES | melting point [°C]
Nc1ccc(-c2cn(-c3nc(-c4ccc(Cl)cc4)cc(C4CC4)n3)cn2)cn1 [Example 49, 5-{1-[4-(4-Chloro-phenyl)-6-cyclopropyl-pyrimidin-2-yl]-1H-imidazol-4-yl}-pyridin-2-ylamine] | 220 to 222
Clc1ccc(-c2cc(C3CC3)nc(-n3cnc(-c4cccnc4)c3)n2)cc1 [Example 50, 4-(4-Chloro-phenyl)-6-cyclopropyl-2-(4-pyridin-3-yl-imidazol-1-yl)-pyrimidine] | 180 to 182
Nc1ncc(-c2cn(-c3nc(-c4ccc(Cl)cc4)cc(C4CC4)n3)cn2)cn1 [Example 51, 5-{1-[4-(4-Chloro-phenyl)-6-cyclopropyl-pyrimidin-2-yl]-1H-imidazol-4-yl}-pyrimidin-2-ylamine] | 238 to 240
Nc1ccc(-c2cn(-c3nccc(-c4ccc(Cl)cc4)n3)cn2)cn1 [Example 52, 5-{1-[4-(4-Chloro-phenyl)-pyrimidin-2-yl]-1H-imidazol-4-yl}-pyridin-2-ylamine] | 188 to 190
Nc1ccc(-c2cn(-c3nc(-c4cccc(C(F)(F)F)c4)cc(C(F)(F)F)n3)cn2)cn1 [Example 53, 5-{1-[4-Trifluoromethyl-6-(3-trifluoromethyl-phenyl)-pyrimidin-2-yl]-1H-imidazol-4-yl}-pyridin-2-ylamine] | 262
Cc1cc(-c2ccc(C(F)(F)F)cc2)cc(-n2cnc(-c3ccc(N)nc3)c2)n1 [Example 58, 5-{1-[6-Methyl-4-(4-trifluoromethyl-phenyl)-pyridin-2-yl]-1H-imidazol-4-yl}-pyridin-2-ylamine] | 224 to 226
Nc1ccc(-c2cccc(-c3cc(-c4ccc(C(F)(F)F)cc4)cc(C4CC4)n3)c2)cn1 [Example 64, 5-{3-[6-Cyclopropyl-4-(4-trifluoromethyl-phenyl)-pyridin-2-yl]-phenyl}-pyridin-2-ylamine] | 130 to 135
Nc1ncc(-c2cn(-c3cc(C(F)(F)F)cc(-c4ccc(C(F)(F)F)cc4)n3)cn2)cn1 [Example 66, 5-{1-[4-Trifluoromethyl-6-(4-trifluoromethyl-phenyl)-pyridin-2-yl]-1H-imidazol-4-yl}-pyrimidin-2-ylamine] | > 250
Cc1cc(-c2ccc(C(F)(F)F)cc2)cc(-c2cncc(-c3ccc(N)nc3)c2)n1 [Example 67, 6-Methyl-4-(4-trifluoromethyl-phenyl)-[2,3′;5′,3″]terpyridin-6″-ylamine] | 161 to 177
Cc1cc(-c2ccc(C(F)(F)F)cc2)cc(-c2cncc(-c3cnc(N)nc3)c2)n1 [Example 68, 5-[6-Methyl-4-(4-trifluoromethyl-phenyl)-[2,3′]bipyridinyl-5′-yl]-pyrimidin-2-ylamine] | 248 to 252
Nc1ccc(-c2cncc(-c3cc(-c4ccc(C(F)(F)F)cc4)cc(C4CC4)n3)c2)cn1 [Example 69, 6-Cyclopropyl-4-(4-trifluoromethyl-phenyl)-[2,3′;5′,3″]terpyridin-6″-ylamine] | 207 to 209
Cc1cc(-c2ccc(C(F)(F)F)cc2)cc(-c2ccnc(-c3cnc(N)nc3)c2)n1 [Example 76, 5-[6-Methyl-4-(4-trifluoromethyl-phenyl)-[2,4′]bipyridinyl-2′-yl]-pyrimidin-2-ylamine] | > 245
Nc1ccc(-c2cc(-c3cc(-c4ccc(C(F)(F)F)cc4)cc(C4CC4)n3)ccn2)cn1 [Example 77, 6-Cyclopropyl-4-(4-trifluoromethyl-phenyl)-[2,4′;2′,3″]terpyridin-6″-ylamine] | 172 to 174
Nc1ncc(-c2cc(-c3cc(-c4ccc(C(F)(F)F)cc4)cc(C4CC4)n3)ccn2)cn1 [Example 78, 5-[6-Cyclopropyl-4-(4-trifluoromethyl-phenyl)-[2,4′]bipyridinyl-2′-yl]-pyrimidin-2-ylamine] | 242 to 245
Cc1cc(-c2ccc(C(F)(F)F)cc2)cc(-c2cccc(-c3ccncc3)c2)n1 [Example 79, 2-Methyl-6-(3-pyridin-4-yl-phenyl)-4-(4-trifluoromethyl-phenyl)-pyridine] | 143 to 147
Cc1cc(-c2ccc(Cl)cc2)cc(-n2cnc(-c3ccc(N)nc3)c2)n1 [Example 80, 5-{1-[4-(4-Chloro-phenyl)-6-methyl-pyridin-2-yl]-1H-imidazol-4-yl}-pyridin-2-ylamine] | 230 to 233
Cc1cc(-c2ccc(Cl)cc2)cc(-c2cncc(-c3ccc(N)nc3)c2)n1 [Example 81, 4-(4-Chloro-phenyl)-6-methyl-[2,3′;5′,3″]terpyridin-6″-ylamine] | 188 to 192
Cc1cc(-c2ccc(Cl)cc2)cc(-c2cccc(-c3cnc(N)nc3)c2)n1 [Example 82, 5-{3-[4-(4-Chloro-phenyl)-6-methyl-pyridin-2-yl]-phenyl}-pyrimidin-2-ylamine] | 197 to 199

SMILES | melting point [°C]
NS(=O)(=O)c1cccc(-c2cccc(-c3cc(C(F)(F)F)cc(-c4ccc(C(F)(F)F)cc4)n3)c2)c1 [Example 83, 3′-[4-Trifluoromethyl-6-(4-trifluoromethyl-phenyl)-pyridin-2-yl]-biphenyl-3-sulfonic acid amide] | 176 to 179
FC(F)(F)c1cc(-c2ccc(Cl)cc2)nc(-c2ccnc(-c3cccnc3)c2)n1 [Example 84, 4-[4-(4-Chloro-phenyl)-6-trifluoromethyl-pyrimidin-2-yl]-[2,3]bipyridinyl] | 226
FC(F)(F)c1ccc(-c2cc(C(F)(F)F)nc(-c3ccnc(-c4cccnc4)c3)n2)cc1 [Example 85, 4-[4-Trifluoromethyl-6-(4-trifluoromethyl-phenyl)-pyrimidin-2-yl]-[2,3′]bipyridinyl] | 247
FC(F)(F)c1cc(-c2ccc(Cl)cc2)nc(-c2ccnc(-c3ccncc3)c2)n1 [Example 86, 4-[4-(4-Chloro-phenyl)-6-trifluoromethyl-pyrimidin-2-yl]-[2,4′]bipyridinyl] | 193
CCOc1cc(-c2cc(C(F)(F)F)nc(-n3cnc(-c4ccc(N)nc4)c3)n2)ccc1C(F)(F)F [Example 87, 5-{1-[4-(3-Ethoxy-4-trifluoromethyl-phenyl)-6-trifluoromethyl-pyrimidin-2-yl]-1H-imidazol-4-yl}-pyridin-2-ylamine] | 266.5
Nc1ccc(-c2cc(-c3nc(-c4ccc(C(F)(F)F)cc4)cc(C(F)F)n3)ccn2)cn1 [Example 88, 4-[4-Difluoromethyl-6-(4-trifluoromethyl-phenyl)-pyrimidin-2-yl]-[2,3′]bipyridinyl-6′-ylamine] | 210
CCOc1cc(-c2cc(C(F)(F)F)nc(-c3nc(-c4ccc(S(N)(=O)=O)cc4)no3)n2)ccc1C(F)(F)F [Example 89, 4-{5-[4-(3-Ethoxy-4-trifluoromethyl-phenyl)-6-trifluoromethyl-pyrimidin-2-yl]-[1,2,4]oxadiazol-3-yl}-benzenesulfonamide] | 250.5
CCOc1cc(-c2cc(C(F)(F)F)nc(-c3nc(-c4cccc(S(N)(=O)=O)c4)no3)n2)ccc1C(F)(F)F [Example 91, 3-{5-[4-(3-Ethoxy-4-trifluoromethyl-phenyl)-6-trifluoromethyl-pyrimidin-2-yl]-[1,2,4]oxadiazol-3-yl}-benzenesulfonamide] | 227
CCOc1cc(-c2cc(C(F)(F)F)nc(-c3ccnc(-c4ccc(N)nc4)c3)n2)ccc1C(F)(F)F [Example 92, 4-[4-(3-Ethoxy-4-trifluoromethyl-phenyl)-6-trifluoromethyl-pyrimidin-2-yl]-[2,3′]bipyridinyl-6′-ylamine] | 222
CCOc1cc(-c2cc(C(F)(F)F)nc(-c3cccc(-c4ccc(N)nc4)c3)n2)ccc1C(F)(F)F [Example 93, 5-{3-[4-(3-Ethoxy-4-trifluoromethyl-phenyl)-6-trifluoromethyl-pyrimidin-2-yl]-phenyl}-pyridin-2-ylamine] | 208
Nc1ccc(-c2cn(-c3nc(-c4ccc(C(F)(F)F)c(F)c4)cc(C(F)(F)F)n3)cn2)cn1 [Example 94, 5-{1-[4-(3-Fluoro-4-trifluoromethyl-phenyl)-6-trifluoromethyl-pyrimidin-2-yl]-1H-imidazol-4-yl}-pyridin-2-ylamine] | 309
CC(=O)Nc1ccc(-c2cn(-c3nc(-c4ccc(C(F)(F)F)cc4)cc(C(F)(F)F)n3)cn2)cn1 [Example 95, N-(5-{1-[4-Trifluoromethyl-6-(4-trifluoromethyl-phenyl)-pyrimidin-2-yl]-1H-imidazol-4-yl}-pyridin-2-yl)-acetamide] | 314
Nc1ccc(-c2cccc(-c3nc(-c4ccc(C(F)(F)F)c(F)c4)cc(C(F)(F)F)n3)c2)cn1 [Example 96, 5-{3-[4-(3-Fluoro-4-trifluoromethyl-phenyl)-6-trifluoromethyl-pyrimidin-2-yl]-phenyl}-pyridin-2-ylamine] | 212
Nc1ccc(-c2cccc(-c3nc(-c4ccc(Cl)c(Cl)c4)cc(C(F)(F)F)n3)c2)cn1 [Example 97, 5-{3-[4-(3,4-Dichloro-phenyl)-6-trifluoromethyl-pyrimidin-2-yl]-phenyl}-pyridin-2-ylamine] | 179
NS(=O)(=O)c1ccc(-c2noc(-c3nc(-c4ccc(Cl)c(Cl)c4)cc(C(F)(F)F)n3)n2)cc1 [Example 98, 4-{5-[4-(3,4-Dichloro-phenyl)-6-trifluoromethyl-pyrimidin-2-yl]-[1,2,4]oxadiazol-3-yl}-benzenesulfonamide] | 302.5
NS(=O)(=O)c1cccc(-c2noc(-c3nc(-c4ccc(Cl)c(Cl)c4)cc(C(F)(F)F)n3)n2)c1 [Example 99, 3-{5-[4-(3,4-Dichloro-phenyl)-6-trifluoromethyl-pyrimidin-2-yl]-[1,2,4]oxadiazol-3-yl}-benzenesulfonamide] | 258
Nc1ccc(-c2noc(-c3nc(-c4ccc(Cl)c(Cl)c4)cc(C(F)(F)F)n3)n2)cn1 [Example 100, 5-{5-[4-(3,4-Dichloro-phenyl)-6-trifluoromethyl-pyrimidin-2-yl]-[1,2,4]oxadiazol-3-yl}-pyridin-2-ylamine] | 227
Nc1ccc(-c2nccc(-c3nc(-c4ccc(C(F)(F)F)cc4)cc(C(F)(F)F)n3)n2)cn1 [Example 101, 5-[6-Trifluoromethyl-4-(4-trifluoromethyl-phenyl)-[2,4′]bipyrimidinyl-2′-yl]-pyridin-2-ylamine] | 236.5
